Experimental data taken from a melting point compilation (Tetko et al.; mined from patent text by program, amines drawn as free bases though some values may be those of a salt).

For `Cc1nc2cc3c(cc2c(=O)[nH]1)C(N(C)c1ccc(C(=O)NC(CCc2nnn[nH]2)C(=O)O)nc1)CC3` (racemic), the melting point was 248 to 250 °C.
`CNc1nc(C2(S(C)=O)C=CC=C(c3ccccc3)C2)c2cc(OC)c(OC)cc2n1` (stereo unspecified) showed a melting point of 163 to 165 °C.
`N#Cc1cnn2c(C(F)(F)F)cc(-c3ccncc3)nc12` showed a melting point of 233 °C.
For `COc1ccc(C2(c3ccc(OC)cc3)CC2(Br)Br)cc1`, the melting point was 173 to 175 °C.
Compound `CC(=O)OC1C(N2CCCCC2)CC2C3CCC4CC(O)C(N5CCOCC5)CC4(C)C3CCC21C` (stereo unspecified) has a melting point of 177 to 184 °C.
In the case of `COC(=O)COc1c(-c2ccccc2)c(=O)[nH]c2cc(Cl)ccc12`, the melting point is reported as 188 to 191 °C.
In the case of `CCCCN(C1CS(=O)(=O)c2cc([N+](=O)[O-])ccc21)S(C)(=O)=O` (stereo unspecified), the melting point is reported as 52 to 55 °C.
Work on `N#Cc1cnc2sc(-c3ccccc3)cc2c1Nc1cccc2[nH]ccc12` yielded a melting point greater than 245 °C.
Compound `C=CCOc1nc2cc(OC)c(OC)cc2c2ncnn12` has a melting point of 189 to 191 °C.
`CC(C)n1nc(-c2sc(C(=O)NCCc3ccccn3)nc2-c2ccccc2)ccc1=O` gave a melting point of 144 to 147 °C.
Compound `CSc1nnc(-c2ccccc2Nc2c(Cl)ccc(C)c2Cl)o1` has a melting point of 170 to 171 °C.
`C[C@@H](N[C@@H](Cc1c[nH]cn1)C(=O)O)[C@H](NC(=O)[C@@H](N)CCCCN)C(=O)O` showed a melting point of 175 to 179 °C.
With `Cc1cc(C)cc(OC(C)(C)C(=O)O[C@H]2C[C@H](O)C=C3C=C[C@H](C)[C@H](CC[C@@H]4C[C@@H](O)CC(=O)O4)[C@H]32)c1` the melting point was 129 to 131 °C.
Compound `CS(=O)(=O)c1ccc(-c2cc(C(=O)CCCO[N+](=O)[O-])nn2C2CCCCC2)cc1` has a melting point of 122 to 124 °C.
With `O=C(c1ccccc1)N1C(=O)c2cccnc2Nc2ccccc21` the melting point was 198 to 201 °C.
Compound `Cc1ccc(C)n1-c1c(Cl)cc(C(F)(F)F)cc1Cl` has a melting point of 63 °C.
For `N#Cc1ccc2c(c1)COC2(c1ccc(F)cc1)c1ccc(F)cc1`, the melting point was 105 to 106 °C.
`CC(CO)Oc1cc(Oc2ccc(S(C)(=O)=O)cc2)cc2cc(C3=NCC(CC(N)=O)S3)[nH]c12` (stereo unspecified) showed a melting point of 137 to 142 °C.
`CCCCCCCCc1ccc(-c2cnc(-c3ccc(O)cc3F)nc2)cc1` gave a melting point of 167 °C.
Compound `O=C(NCCCNS(=O)(=O)c1ccc(Oc2ccccc2)cc1)P(=O)(O)O` has a melting point of 165 to 168 °C.
`CCOC(=O)CCc1c[nH]c2cnc(-n3cnnc3)cc12` gave a melting point of 215 to 218 °C.
`Nc1nc(N)c(C(=O)N=CNN2CCSCC2)nc1Cl` showed a melting point of 234 to 236 °C.
`NC(=O)c1cc(Oc2ccc(C(F)(F)F)cc2Cl)ccc1[N+](=O)[O-]` gave a melting point of 139 to 143 °C.
For `CCCCCCC(=Cc1ccc(-c2nnn[nH]2)cc1)C(OC)=C1SC(=S)NC1=O`, the melting point was greater than 300 °C.
`CC(=O)NC[C@H]1CN(c2ccc(-n3ccnn3)c(F)c2)C(=O)O1` gave a melting point of 193 to 194 °C.
`CC(C)c1cccc2c1C(=O)N(COC(=O)c1c(Cl)ccc(O)c1Cl)S2(=O)=O` showed a melting point of 78 to 80 °C.
With `CC(O)N1CCC(=C2c3ccccc3C=Cc3ccc(S(=O)(=O)C(F)(F)F)cc32)CC1` (stereo unspecified) the melting point was 141 to 144 °C.
For `N#Cc1cccn1-c1cccc(C(=O)N=C(N)N)c1`, the melting point was 136 to 138 °C.
`COC1=C(OC)C(=O)C(CN2CCOCC2)=C(C)C1=O` gave a melting point of 60 to 62 °C.
Work on `CCCCC1(CC)CSC2=CC=CC3=CNCC32C(c2ccccc2)=N1` (stereo unspecified) yielded a melting point of 145 to 146 °C.
`COc1ccc(F)cc1C(C)(C)CC(O)(C(=O)O)C(F)(F)F` (stereo unspecified) showed a melting point of 102 to 104 °C.
`CCSc1ccc(CC(=O)NC(NC(=NC#N)Nc2cccc3ncccc23)C(C)(C)C)cc1` (stereo unspecified) showed a melting point of 189 to 190 °C.
`COC(=O)c1nc(-c2ccc(Cl)c(F)c2F)nc(N)c1Br` showed a melting point of 175 to 178 °C.
Work on `CCOc1nn(-c2ccc(C(F)(F)F)cn2)cc1CCCOc1nn(-c2ccccc2)cc1CC(=O)O` yielded a melting point of 117 to 118 °C.
Compound `Cc1cc(N=Nc2ccccn2)ccc1-c1ccc(-c2ccc(N=Nc3ccccn3)cc2C)s1` has a melting point of 152 to 153 °C.
Compound `O=C(CCl)c1ccc(-c2ccccc2Cl)cc1` has a melting point of 47 °C.
Compound `CC(=O)Nc1ccc(Nc2nnc(Cc3ccncc3)c3ccccc23)cc1` has a melting point greater than 270 °C.
With `CN(C(=O)c1cnc2c(C(F)(F)F)cccc2c1-c1ccccc1)c1ccccc1` the melting point was 188 to 190 °C.
`O=C1c2ccc3c4cccc5cccc(c6ccc(c2c36)C(=O)N1C1CCCCCCCCCCC1)c54` gave a melting point of 285 °C.
`C=CC(=O)Nc1cccc(CCCc2n[nH]c3cc(C)nn23)c1` gave a melting point of 195 to 197 °C.
Work on `O=C(NC1CCN(CCc2ccncc2)CC1)c1ccccc1` yielded a melting point of 193 to 195 °C.
Work on `Cn1cc(S(C)=O)c(=O)c2scc(-c3ccccc3)c21` (stereo unspecified) yielded a melting point of 206 to 209 °C.
`OCc1ccc(C2CCCc3cncn32)cc1` (stereo unspecified) showed a melting point of 142 to 145 °C.
`COc1ccc2c(c1)C1CCN(C)C(C1)N2C` (stereo unspecified) showed a melting point of 72 to 73.5 °C.
`CNNC(=O)c1ccc(Cl)cc1` gave a melting point of 130 to 131 °C.
Compound `Clc1nc(Cl)nc(N2CC3CCC(CC3)C2)n1` has a melting point of 153 to 154 °C.
`CCCC(=NOCC)C1=C(O)CC(c2c(C)c(C)c(O)c(C)c2C)CC1=O` (stereo unspecified) showed a melting point of 134 °C.
With `COC(=O)COc1ccc(C(C)=O)c(OCCCBr)c1` the melting point was 67 to 70 °C.
For `O=C(Cn1c(-c2ccc(Cl)cc2)nc2cccnc21)Nc1ccccc1`, the melting point was 240 to 242 °C.
Work on `CCOC(=O)c1cn(OC)c2nc3cc(N4CC(NC)C4)c(F)cc3cc2c1=O` yielded a melting point of 234 °C.
`Cc1cccc(-n2nc(C)cc2-c2ccnc(NCCc3ccccc3)c2)c1` gave a melting point of 86 to 87 °C.
